Results on four molecules are retold here after US8563594B2, “S1P3 receptor inhibitors for treating pain” (Allergan, Inc., priority 2007, dated 2013).

This assay has as its target S1P1 receptor (Homo sapiens (Human), UniProt P21453). In words: FLIPR assay (Ca2+ response), S1P1 receptor. As to conditions: receptor activity at highest dose tested (10 μM) relative to 5 nM sphingosine-1-phosphate. It is filed as cell-based.

Each structure is given as a SMILES string.

Sequence of S1P1 receptor (P21453 whole entry): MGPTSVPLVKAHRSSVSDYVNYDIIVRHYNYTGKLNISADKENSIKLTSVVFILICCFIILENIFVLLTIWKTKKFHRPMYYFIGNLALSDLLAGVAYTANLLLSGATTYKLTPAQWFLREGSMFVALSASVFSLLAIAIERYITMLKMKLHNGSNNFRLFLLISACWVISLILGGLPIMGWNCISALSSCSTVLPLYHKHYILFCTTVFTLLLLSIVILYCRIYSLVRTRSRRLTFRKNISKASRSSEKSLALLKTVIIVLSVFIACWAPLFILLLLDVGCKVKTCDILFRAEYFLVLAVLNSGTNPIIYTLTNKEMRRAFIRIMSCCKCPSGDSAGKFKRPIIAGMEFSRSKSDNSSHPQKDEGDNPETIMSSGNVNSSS

Consider `Cc1ccc(-c2ccc(CNCCCP(=O)(O)O)nc2-c2ccccc2)cc1` [Compound 147], for which the “S1P1 percent efficacy (in parenthesis)” value is recorded as 36%.

On to `CCc1ccc(-c2ccc(CNCCCP(=O)(O)O)nc2-c2ccccc2)cc1` [Compound 148], for which the “S1P1 percent efficacy (in parenthesis)” value is reported as 57%.

`CCCc1ccc(-c2ccc(CNCCCP(=O)(O)O)nc2-c2ccccc2)cc1` [Compound 154]: the “S1P1 percent efficacy (in parenthesis)” value worked out at 69%.

Turning to `CCc1ccc(-c2ccc(CNCCCP(=O)(O)O)nc2-c2ccccc2)cc1` [drawing 165], where the note is “selective inhibitor table”, the “S1P1 percent efficacy (in parenthesis)” value turned out to be 57%.
